Measurements from PMC9967275, “Screening the Pathogen Box to Discover and Characterize New Cruzain and TbrCatL Inhibitors” (Pathogens, 2023).
Where two headings read alike, the source gives them in different places.

Tests used:
[1] = target: T1, TbrCatL (Trypanosoma brucei rhodesiense, UniProt Q95PM0); test: TbrCatL enzymatic inhibition assay (cleavage of fluorogenic substrate Z-FR-AMC); assay type: biochemical; conditions: for TbrCatL 0’ Inhibition / TbrCatL 10’ Inhibition: sheet "Screening results";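 on TbrCatL 0’ Inhibition: at 5 µM compound concentration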;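 on TbrCatL 10’ Inhibition: at 5 µM compound concentration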;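 on TbrCatL Inhibition 0’: at 5 µM compound concentration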;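 on TbrCatL Inhibition 10’: at 5 µM compound concentration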
T1 construct: Conor Caffrey (University of California San Diego)
T1 sequence (Q95PM0 entry or part of it): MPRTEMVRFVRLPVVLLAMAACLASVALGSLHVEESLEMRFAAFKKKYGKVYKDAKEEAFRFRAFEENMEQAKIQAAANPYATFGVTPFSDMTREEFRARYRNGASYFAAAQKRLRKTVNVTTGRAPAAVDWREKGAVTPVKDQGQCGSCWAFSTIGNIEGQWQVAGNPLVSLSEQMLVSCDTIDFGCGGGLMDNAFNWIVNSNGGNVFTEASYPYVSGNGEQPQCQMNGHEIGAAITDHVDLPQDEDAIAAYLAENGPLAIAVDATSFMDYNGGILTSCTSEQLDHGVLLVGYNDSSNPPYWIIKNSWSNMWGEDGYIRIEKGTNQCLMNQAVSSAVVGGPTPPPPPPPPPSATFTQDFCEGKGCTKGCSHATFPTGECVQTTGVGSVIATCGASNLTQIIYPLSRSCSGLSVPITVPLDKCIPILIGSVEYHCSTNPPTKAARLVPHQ
Outline: (§1)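 Recombinant enzymes assayed by Z-Phe-Arg-AMC cleavage at 25 °C, fluorescence 340/440 nm over 5–7 min, with 10 min or no enzyme–compound preincubation.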

[2] = target: cruzain (Trypanosoma cruzi, UniProt P25779); test: biochemical;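 on Cruzain 0’ Inhibition: at 5 µM compound concentration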;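 on Cruzain 10’ Inhibition: at 5 µM compound concentration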;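 on Cruzain Inhibition 0’: at 5 µM compound concentration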;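 on Cruzain Inhibition 10’: at 5 µM compound concentration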
cruzain, sequence (P25779 123-337 limits assumed): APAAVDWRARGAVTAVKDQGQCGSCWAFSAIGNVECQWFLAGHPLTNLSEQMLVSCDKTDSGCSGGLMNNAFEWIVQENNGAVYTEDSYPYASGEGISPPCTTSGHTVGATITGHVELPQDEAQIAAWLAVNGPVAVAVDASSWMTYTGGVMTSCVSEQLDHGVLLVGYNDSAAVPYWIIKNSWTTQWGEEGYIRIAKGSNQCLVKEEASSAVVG
Outline: as §1

[3] = 0’ (pre-incubation time), sheet "Screening results"
[4] = 10’ (pre-incubation time), sheet "Screening results"
[5] = 0’ (pre-incubation time), Pathogen Box screening results
[6] = 10’ (pre-incubation time), Pathogen Box screening results
[7] = 0’ (no pre-incubation), sheet Screening results
[8] = 10’ (pre-incubation), sheet Screening results

| SMILES | TbrCatL 0’ Inhibition ([1]; 0’ (pre-incubation time)) [%] | TbrCatL 10’ Inhibition ([1]; 10’ (pre-incubation time)) [%] | Cruzain 0’ Inhibition [2, 3] [%] | Cruzain 10’ Inhibition [2, 4] [%] | other results |
| --- | --- | --- | --- | --- | --- |
| c1ccc(Oc2ccc(-c3cncc(-c4ccc5[nH]ccc5c4)n3)cc2)cc1 [MMV688178] | -10 | -21 | -6 | -6 | – |
| Cc1nn(C)c(C)c1NS(=O)(=O)c1c(Cl)cc(-c2ccnc(N3CCNCC3)c2)cc1Cl [MMV688180] | -7 | 28 | -4 | 10 | – |
| C[C@]1(COc2ccc(N3CCC(Oc4ccc(OC(F)(F)F)cc4)CC3)cc2)Cn2cc([N+](=O)[O-])nc2O1 [MMV688262] | 0.7 | -1.4 | -0.1 | -0.4 | – |
| COc1ccc(-c2cnc3cnc(-c4cccc(OC(C)C)c4)cn23)cc1 [MMV688270] | -8 | -8 | -4 | 5 | – |
| N=C(N)Nc1ccc(-c2ccc(-c3ccc(NC(=N)N)c(Cl)c3)o2)cc1Cl [MMV688271] | – | – | – | – | inhibition at 5 µM ([1]; read-out: Inhibition at 5 µM (Mean ± SEM %) TbrCatL 0′): 53 ± 5%; inhibition at 5 µM ([1]; read-out: Inhibition at 5 µM (Mean ± SEM %) TbrCatL 10′ inc): 43 ± 1%; inhibition at 5 µM ([1]; read-out: TbrCatL 0’ Inhibition): 53%; inhibition at 5 µM ([1]; read-out: TbrCatL 10’ Inhibition): 43%; inhibition at 5 µM ([2]; read-out: Cruzain 0’ Inhibition, 0’ (pre-incubation time), sheet "Screening results"): 83%; inhibition at 5 µM ([2]; read-out: Cruzain 10’ Inhibition, 10’ (pre-incubation time), sheet "Screening results"): 50%; inhibition at 5 µM ([2]; read-out: Inhibition at 5 µM (Mean ± SEM %) Cruzain 0′, 5 µM, no pre-incubation, initial screening): 83 ± 10%; inhibition at 5 µM ([2]; read-out: Inhibition at 5 µM (Mean ± SEM %) Cruzain 10′ inc, 5 µM, 10′ pre-incubation, initial screening): 50 ± 4%; inhibition at 5 µM ([2]; read-out: Inhibition of cruzain or TbrCatL (either enzyme) in the initial screening, 5 µM, either cruzain or TbrCatL, with or without pre-incubation): ≥ 60% |
| Nc1ccc2ncnc(Nc3ccc(OCc4cccc(F)c4)c(Cl)c3)c2c1 [MMV688273] | – | – | – | – | TbrCatL Inhibition 0’ [1, 5]: 0.9%; TbrCatL Inhibition 10’ [1, 6]: -14%; Cruzain Inhibition 0’ [2, 5]: -11%; Cruzain Inhibition 10’ [2, 6]: -18% |
| O=C(CN1CCOCC1)Nc1ccc2ncnc(Nc3ccc(OCc4cccc(F)c4)c(Cl)c3)c2c1 [MMV688274] | 13 | 17 | 5.7 | 2.4 | – |
| CC1=Nc2ccc(Cl)cc2C(O)(c2ccc(C)cc2)N1CCN1CCCCC1 (stereo not drawn) [MMV688279] | -3 | -5 | -4.5 | 0.1 | – |
| CN1CCN(S(=O)(=O)c2ccc(-c3ccc4c(Nc5ncc(Cl)cn5)ccnc4c3)cc2)CC1 [MMV688283] | – | – | – | – | TbrCatL Inhibition 0’ [1, 7]: 24%; TbrCatL Inhibition 10’ [1, 8]: 18%; Cruzain Inhibition 0’ [2, 7]: 30%; Cruzain Inhibition 10’ [2, 8]: 31% |
| COc1ccc(-c2nnc3ccc(-c4cccc(C(C)C)c4)cn23)cc1OC [MMV688313] | -19 | -27 | -16 | -10 | – |
| CC(=O)NC[C@H]1CN(c2ccc(-c3ccc(CNCc4cn[nH]n4)cc3)c(F)c2)C(=O)O1 [MMV688327] | – | – | – | – | TbrCatL Inhibition 0’ [1, 7]: -5.5%; TbrCatL Inhibition 10’ [1, 8]: 6.4%; Cruzain Inhibition 0’ [2, 7]: -3.5%; Cruzain Inhibition 10’ [2, 8]: 4% |
| CC(=O)N1CCN(c2ccc(Oc3ccc(Cl)cc3O)cc2)CC1 [MMV688330] | – | – | – | – | TbrCatL Inhibition 0’ [1, 5]: -8%; TbrCatL Inhibition 10’ [1, 6]: -10%; Cruzain Inhibition 0’ [2, 5]: -3%; Cruzain Inhibition 10’ [2, 6]: -11% |
| Nc1nc(N)c2c3c(sc2n1)CN(Cc1ccccc1)CC3 [MMV688345] | -1 | 23 | 3.6 | 16 | – |
| COC(=O)c1ccc(F)cc1NS(=O)(=O)c1cccc(-c2cnn(Cc3ccccc3)c2)c1 [MMV688350] | – | – | – | – | TbrCatL Inhibition 0’ [1, 7]: 2%; TbrCatL Inhibition 10’ [1, 8]: -9%; Cruzain Inhibition 0’ [2, 7]: -7%; Cruzain Inhibition 10’ [2, 8]: -5% |
| O=C1[C@@H](Oc2ccccc2)[C@@H](c2ccc(Cl)cc2)N1CCn1cnc2c(NCc3ccccc3)ncnc21 [MMV688352] | 5 | 12 | 0 | 23 | – |
| COc1ccc(C2=NN(C3CCCCCC3)C(=O)C2(C)C)cc1OCc1ccccn1 [MMV688360] | – | – | – | – | TbrCatL Inhibition 0’ [1, 7]: 13%; TbrCatL Inhibition 10’ [1, 8]: 16%; Cruzain Inhibition 0’ [2, 7]: 14%; Cruzain Inhibition 10’ [2, 8]: 11% |
| c1cc(C2=NCCN2)cc(-c2cc(-c3ccc(C4=NCCN4)cc3)no2)c1 [MMV688361] | 1.9 | -3.5 | 4.5 | 7.4 | – |
| CC(C)(C)OC(=O)N1CCC(Cn2nc(-c3cnc4ccccc4c3)c3c(N)ncnc32)CC1 [MMV688364] | -10 | -15 | -14 | 0 | – |
| NCCN(C(=O)c1ccc(Cl)cc1Cl)c1ccc(OCc2ccc(Cl)cc2)cc1 [MMV688371] | – | – | – | – | TbrCatL Inhibition 0’ [1, 7]: 6%; TbrCatL Inhibition 10’ [1, 8]: 1%; Cruzain Inhibition 0’ [2, 7]: 9%; Cruzain Inhibition 10’ [2, 8]: 12% |
